From patent publication US20120302566A1, “INDANYLOXYDIHYDROBENZOFURANYLACETIC ACIDS” (BOEHRINGER INGELHEIM INTERNATIONAL GMBH, priority 2010, published 2012)
pEC50: −log10 of the molar value.

molecular target: human GPR40 receptor (Homo sapiens, UniProt O14842); experiment: IP1 accumulation measurements using the IPOne assay system; type: cell-based; conditions: IP1 accumulation (IPOne HTRF), 1 hour stimulation; 1321N1 cells stably expressing human GPR40; read-out: EC50 values on GPR40 determined as described in (B)
Experimental: (B) IP1 accumulation measurements using the IPOne assay system—1321N1 cells stably expressing human GPR40 receptor (Euroscreen, Belgium) were seeded 24 h before the assay in black clear-bottom collagen-coated 384-well plates in culture medium containing 10% FCS, 1% Na-Pyruvate and 400 μg/mL G418. IP1 is assayed according to the Manufacturer's description (Cisbio Bioassays, France). In brief, the assay is started by substitution of the culture medium by stimulation buffer (Hepes 10 mM, CaCl2 1 mM, MgCl2 0.5 mM, KCl 4.2 mM, NaCl 146 mM and glucose 5.5 mM, pH 7.4) without LiCl. Cells are stimulated for 1 hour at 37°, 10% CO2 by addition of the compounds that were diluted in stimulation buffer containing LiCl yielding a final LiCl concentration of 50 mM. Assays are stopped by adding HTRF-conjugates (IP1-d2 and Anti-IP1 cryptate Tb) and lysis buffer, provided by the manufacturer. After an incubation time of 1 hour at room temperature plates are measured using an EnVision™, Perkin Elmer.

human GPR40 receptor, sequence (O14842 whole entry): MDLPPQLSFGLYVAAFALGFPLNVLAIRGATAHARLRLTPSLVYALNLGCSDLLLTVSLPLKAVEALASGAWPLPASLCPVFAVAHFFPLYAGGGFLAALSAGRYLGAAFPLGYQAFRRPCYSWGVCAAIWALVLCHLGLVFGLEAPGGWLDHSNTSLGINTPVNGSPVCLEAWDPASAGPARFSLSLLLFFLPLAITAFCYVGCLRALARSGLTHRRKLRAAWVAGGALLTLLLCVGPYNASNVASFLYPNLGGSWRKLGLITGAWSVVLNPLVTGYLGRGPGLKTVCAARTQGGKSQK

Compared with `CC1(C)CCCC=C1c1cccc2c1CC[C@H]2Oc1ccc2c(c1)OC[C@H]2CC(=O)O` [Example 70, {(S)-6-[(R)-4-(6,6-Dimethyl-cyclohex-1-enyl)-indan-1-yloxy]-2,3-dihydro-benzofuran-3-yl}-acetic acid], `CC1(C)CCC[C@H]1c1cccc2c1CC[C@H]2Oc1ccc2c(c1)OC[C@H]2CC(=O)O` (single isomer, unassigned) [Example 76] is 1.08 log units lower in pEC50: 8.10 for the first, 7.02 for the second.

Going from `CC(C)(C#N)c1cccc2c1CC[C@H]2Oc1ccc2c(c1)OC[C@H]2CC(=O)O` [Example 97, {(S)-6-[(R)-4-(Cyano-dimethyl-methyl)-indan-1-yloxy]-2,3-dihydro-benzofuran-3-yl}-acetic acid] to `CC(C)(C)c1cccc2c1CC[C@H]2Oc1ccc2c(c1)OC[C@H]2CC(=O)O` [Example 96, {(S)-6-[(R)-4-tert-Butyl-indan-1-yloxy]-2,3-dihydro-benzofuran-3-yl}-acetic acid], the pEC50 rises from 6.77 to 7.44 (0.67 log units).

Compared with `C=CCCC(C)(O)c1cccc2c1CC[C@H]2Oc1ccc2c(c1)OC[C@H]2CC(=O)O` (stereo partly drawn) [Example 82, {(S)-6-[(R)-4-(1-Hydroxy-1-methyl-pent-4-enyl)-indan-1-yloxy]-2,3-dihydro-benzofuran-3-yl}-acetic acid], `COCC(F)(F)c1cccc2c1CC[C@H]2Oc1ccc2c(c1)OC[C@H]2CC(=O)O` [Example 79, {(S)-6-[(R)-4-(1,1-Difluoro-2-methoxy-ethyl)-indan-1-yloxy]-2,3-dihydro-benzofuran-3-yl}-acetic acid] is 1.07 log units higher in pEC50: 5.47 for the first, 6.54 for the second.

Compared with `O=C(O)C[C@@H]1COc2cc(O[C@@H]3CCc4c(-c5nccc6ccccc56)cccc43)ccc21` [Example 77, {(S)-6-[(R)-4-Isoquinolin-1-yl-indan-1-yloxy]-2,3-dihydro-benzofuran-3-yl}-acetic acid], `N#Cc1cccnc1-c1cccc2c1CC[C@H]2Oc1ccc2c(c1)OC[C@H]2CC(=O)O` [Example 46, {(S)-6-[(R)-4-(3-Cyano-pyridin-2-yl)-indan-1-yloxy]-2,3-dihydro-benzofuran-3-yl}-acetic acid] is 1.23 log units lower in pEC50: 7.24 for the first, 6.01 for the second.

First: COc1cc(-c2cccc3c2CC[C@H]3Oc2ccc3c(c2)OC[C@H]3CC(=O)O)c(F)cn1 [Example 68, {(S)-6-[(R)-4-(5-Fluoro-2-methoxy-pyridin-4-yl)-indan-1-yloxy]-2,3-dihydro-benzofuran-3-yl}-acetic acid]
Second: COc1ccc(C)c(-c2cccc3c2CC[C@H]3Oc2ccc3c(c2)OC[C@H]3CC(=O)O)c1 [Example 71, {(S)-6-[(R)-4-(5-Methoxy-2-methyl-phenyl)-indan-1-yloxy]-2,3-dihydro-benzofuran-3-yl}-acetic acid]
The pEC50 of the first is 0.71 log units lower: 6.44 for the first, 7.15 for the second.

`O=C(O)C[C@@H]1COc2cc(O[C@@H]3CCc4c3cccc4-n3ccccc3=O)ccc21` [Example 51, {(S)-6-[(R)-4-(2-Oxo-2H-pyridin-1-yl)-indan-1-yloxy]-2,3-dihydro-benzofuran-3-yl}-acetic acid] and `Cn1ccnc1-c1cccc2c1CC[C@H]2Oc1ccc2c(c1)OC[C@H]2CC(=O)O` [Example 57, {(S)-6-[(R)-4-(1-methyl-1H-imidazol-2-yl)-indan-1-yloxy]-2,3-dihydro-benzofuran-3-yl}-acetic acid] are within 0.2 log units of each other in pEC50: 5.01 for the first, 5.05 for the second.

Going from `O=C(O)C[C@@H]1COc2cc(O[C@@H]3CCc4c3cccc4C(F)(F)C(F)(F)F)ccc21` [Example 101, {(S)-6-[(R)-4-Pentafluoroethyl-indan-1-yloxy]-2,3-dihydro-benzofuran-3-yl}-acetic acid] to `O=C(O)C[C@@H]1COc2cc(O[C@@H]3CCc4c(-c5ccccc5C(F)(F)C(F)(F)F)cccc43)ccc21` [Example 94, {(S)-6-[(R)-4-(2-Pentafluoroethyl-phenyl)-indan-1-yloxy]-2,3-dihydro-benzofuran-3-yl}-acetic acid], the pEC50 rises from 7.60 to 8.15 (0.55 log units).

Compared with `CC(C)c1cccc2c1CC[C@H]2Oc1ccc2c(c1)OC[C@H]2CC(=O)O` [Example 32, {(S)-6-[(R)-4-Isopropyl-indan-1-yloxy]-2,3-dihydro-benzofuran-3-yl}-acetic acid], `CO[C@H](c1cccc2c1CC[C@H]2Oc1ccc2c(c1)OC[C@H]2CC(=O)O)C(C)(C)C` (single isomer, unassigned) [Example 29, {(S)-6-[(R)-4-((S)*-1-Methoxy-2,2-dimethyl-propyl)-indan-1-yloxy]-2,3-dihydro-benzofuran-3-yl}-acetic acid] is 0.84 log units higher in pEC50: 7.01 for the first, 7.85 for the second. The second is the more potent here.

First: Cc1cc(=O)n(C)c(C)c1-c1cccc2c1CC[C@H]2Oc1ccc2c(c1)OC[C@H]2CC(=O)O [Example 63, {(S)-6-[(R)-4-(1,2,4-Trimethyl-6-oxo-1,6-dihydro-pyridin-3-yl)-indan-1-yloxy]-2,3-dihydro-benzofuran-3-yl}-acetic acid]
Second: Cc1ccnc(C)c1-c1cccc2c1CC[C@H]2Oc1ccc2c(c1)OC[C@H]2CC(=O)O [Example 93, {(S)-6-[(R)-4-(2,4-Dimethyl-pyridin-3-yl)-indan-1-yloxy]-2,3-dihydro-benzofuran-3-yl}-acetic acid]
The pEC50 of the first is 1.71 log units lower: 5.50 for the first, 7.21 for the second. The second is the more potent here.

Compared with `O=C(O)C[C@@H]1COc2cc(O[C@H]3CCc4ccc(C(F)(F)F)cc43)ccc21` [Example 50, {(S)-6-[(S)-6-Trifluoromethyl-indan-1-yloxy]-2,3-dihydro-benzofuran-3-yl]-acetic acid], `CC(C)(C)c1ccc2c(c1)CC[C@H]2Oc1ccc2c(c1)OC[C@H]2CC(=O)O` [Example 95, {(S)-6-[(R)-5-tert-Butyl-indan-1-yloxy]-2,3-dihydro-benzofuran-3-yl}-acetic acid] is 1.47 log units higher in pEC50: 5.53 for the first, 7.00 for the second.

Compared with `Cc1ccc(O)cc1-c1cccc2c1CC[C@H]2Oc1ccc2c(c1)OC[C@H]2CC(=O)O` [Example 72, {(S)-6-[(R)-4-(5-Hydroxy-2-methyl-phenyl)-indan-1-yloxy]-2,3-dihydro-benzofuran-3-yl}-acetic acid], `COc1ccc(C)c(-c2cccc3c2CC[C@H]3Oc2ccc3c(c2)OC[C@H]3CC(=O)O)c1C` [Example 100, {(S)-6-[(R)-4-(3-Methoxy-2,6-dimethyl-phenyl)-indan-1-yloxy]-2,3-dihydro-benzofuran-3-yl}-acetic acid] is 0.58 log units higher in pEC50: 7.01 for the first, 7.59 for the second.

First: CO[C@@H](c1cccc2c1CC[C@H]2Oc1ccc2c(c1)OC[C@H]2CC(=O)O)C(F)(F)F (single isomer, unassigned) [Example 39, {(S)-6-[(R)-4-((S)*-2,2,2-Trifluoro-1-methoxy-ethyl)-indan-1-yloxy]-2,3-dihydro-benzofuran-3-yl}-acetic acid]
Second: CO[C@H](c1cccc2c1CC[C@H]2Oc1ccc2c(c1)OC[C@H]2CC(=O)O)C(F)(F)F (single isomer, unassigned) [Example 38, {(S)-6-[(R)-4-((R)*-2,2,2-Trifluoro-1-methoxy-ethyl)-indan-1-yloxy]-2,3-dihydro-benzofuran-3-yl}-acetic acid]
The pEC50 of the first is 0.30 log units lower: 6.58 for the first, 6.88 for the second. The second is the more potent here.

`O=C(O)C[C@@H]1COc2cc(O[C@@H]3CCc4c(C(F)(F)F)ccc(F)c43)ccc21` [Example 24, {(S)-6-[(R)-7-Fluoro-4-trifluoromethyl-indan-1-yloxy]-2,3-dihydro-benzofuran-3-yl}-acetic acid] and `O=C(O)C[C@@H]1COc2cc(O[C@@H]3CCc4c3ccc(F)c4Cl)ccc21` [Example 44, {(S)-6-[(R)-4-Chloro-5-fluoro-indan-1-yloxy]-2,3-dihydro-benzofuran-3-yl}-acetic acid] are within 0.2 log units of each other in pEC50: 7.46 for the first, 7.60 for the second.

First: COC(C)(C)C(F)(F)c1cccc2c1CC[C@H]2Oc1ccc2c(c1)OC[C@H]2CC(=O)O [Example 84, {(S)-6-[(R)-4-(1,1-Difluoro-2-methoxy-2-methyl-propyl)-indan-1-yloxy]-2,3-dihydro-benzofuran-3-yl}-acetic acid]
Second: CO[C@@H](c1cccc2c1CC[C@H]2Oc1ccc2c(c1)OC[C@H]2CC(=O)O)C(C)(C)C (single isomer, unassigned) [Example 28, {(S)-6-[(R)-4-((R)*-1-Methoxy-2,2-dimethyl-propyl)-indan-1-yloxy]-2,3-dihydro-benzofuran-3-yl}-acetic acid]
The pEC50 of the first is 0.67 log units lower: 6.93 for the first, 7.60 for the second.

First: O=C(O)C[C@@H]1COc2cc(O[C@@H]3CCc4c(-c5ccccc5C(F)(F)F)cccc43)ccc21 [Example 69, {(S)-6-[(R)-4-(2-Trifluoromethyl-phenyl)-indan-1-yloxy]-2,3-dihydro-benzofuran-3-yl}-acetic acid]
Second: Cc1cc2c(cc1O[C@@H]1CCc3c1cccc3C(F)(F)F)OCC2CC(=O)O (mixture of isomers) [Example 107, {5-Methyl-6-[(R)-4-trifluoromethyl-indan-1-yloxy]-2,3-dihydro-benzofuran-3-yl}-acetic acid]
The pEC50 of the first is 1.84 log units higher: 7.06 for the first, 5.22 for the second. The first is the more potent here.

Compared with `Cc1cccc(C)c1-c1ccc2c(c1)[C@@H](Oc1ccc3c(c1)OC[C@H]3CC(=O)O)CC2` [Example 53, {(S)-6-[(S)-6-(2,6-Dimethyl-phenyl)-indan-1-yloxy]-2,3-dihydro-benzofuran-3-yl}-acetic acid], `Cc1c(O[C@@H]2CCc3c2cccc3C(F)(F)F)ccc2c1OCC2CC(=O)O` (mixture of isomers) [Example 105, {7-Methyl-6-[(R)-4-trifluoromethyl-indan-1-yloxy]-2,3-dihydro-benzofuran-3-yl}-acetic acid] is 1.31 log units lower in pEC50: 6.68 for the first, 5.37 for the second.
